According to patent US20240016805A1, “THERAPEUTIC METHODS AND COMPOSITIONS FOR TREATING PANCREATIC CANCER USING DEVIMISTAT” (Cornerstone Pharmaceuticals, Inc., priority 2020, published 2024):

Experiments:
[1] = test system: metastatic pancreatic cancer; conditions: cited from earlier work
[2] = Adverse events and potential risks attributed to the study drugs; type: in vivo; conditions: expected adverse event
Description: Probably related: Creatinine (expected Adverse Event).
Attribution is the relationship between an adverse event or serious adverse event and the study drug. Attribution will be assigned as follows: • Definite—The AE is clearly related to the study drug. • Probable—The AE is likely related to the study drug. • Possible—The AE may be related to the study drug. • Unlikely—The AE is doubtfully related to the study drug. • Unrelated—The AE is clearly NOT related to the study drug.

[3] = Animal studies of IV administration of devimistat (acute toxicity, local inflammation); type: in vivo
Protocol: Devimistat must be administered IV, via an IV catheter that is free flowing and free of air in the dead space of the IV catheter, to minimize vascular irritation, inflammation and acute toxicity of devimistat (Study NCL-049). […] To avoid local reactions at and around the site of administration, devimistat must be administered via a central venous catheter.
Devimistat must not be administered as a bolus, but by infusion, at a rate of ˜4 mL/min, via a central venous catheter with D5W running at a rate of about 125-150 mL/hr. This is to minimize potential acute toxicity of devimistat, according to animal studies.

[4] = Compatibility of devimistat with IV infusion sets, IV bags and syringes; type: physicochemical
Protocol: Therefore, DEHP-containing IV infusion sets, IV bags or syringes should not be used in mixing or administration of devimistat.
A compatibility study has been conducted showing that devimistat is compatible with 4 commonly used IV infusion sets. Therefore, these 4 types of IV infusion sets, and IV infusion sets that are made with the same materials, can be used to administer devimistat.
Compatibility studies have shown that devimistat drug product (50 mg/mL), and drug product diluted with D5W to various concentrations (1.6-25 mg/mL) are compatible with various types of syringes, as listed below. Therefore, any of these types of syringes, and syringes that are made with the same materials, can be used to administer devimistat. Also, glass syringes can also be used, since glass (such as glass containers) is compatible with devimistat drug product. • Norm-Ject, polyethylene barrel, polyethylene plunger, latex free (Henke Sass Wolf GMBH) syringes • Becton Dickinson syringes • Terumo syringes • Monoject syringes • Glass syringes

[5] = test system: advanced pancreatic cancer; conditions: gemcitabine vs. fluorouracil (Burris 1997); cited from earlier work
metastatic PDA = conditions: patients with metastatic PDA (Von Hoff 2013); cited from earlier work
[6] = test system: metastatic pancreatic cancer; conditions: metastatic pancreatic cancer (Conroy 2011); cited from earlier work
[7] = 18 patients who received the MTD, with mFOLFIRINOX

Structure (SMILES)	Grade 1-2 toxicity observed [1, 7]	common grade 3/4 toxicities [1, 7]	specific risks attributed beyond the toxicities associated with mFOLFIRINOX ([1]; pilot Phase 1 study)	adverse events probably related [2]	effect of accidental co-administration of extra air in the dead space of IV catheters ([3]; animal studies, IV administration)	effect of accidental leakage into the perivascular space during IV administration ([3]; in vivo, iv)	compatibility with IV infusion sets ([4]; 4 commonly used IV infusion sets (PVC, latex, polyethylene))	leaching of DEHP ([4]; DEHP-containing IV infusion sets and IV bags)	overall survival [5] [months]	overall survival (metastatic PDA) [months]	progression free survival (PFS) (metastatic PDA) [months]	PFS [6] [months]	overall survival [6] [months]	partial response rate [6] [%]
O=C(O)CCCCC(CCSCc1ccccc1)SCc1ccccc1 (stereo not drawn) [devimistat, 6,8-bis(benzylsulfanyl)octanoic acid]	sensory neuropathy	hypokalemia, diarrhea, abdominal pain, hyperglycemia, peripheral neuropathy, neutropenia, lymphopenia, anemia, and thrombocytopenia	no specific risks that have been definitively observed and attributed to devimistat	Creatinine	potential to induce acute toxicity	can induce significant local inflammation	compatible	can cause leaching of DEHP	–	–	–	–	–	–
O=c1[nH]cc(F)c(=O)[nH]1 [fluorouracil, 5-fluoro-1H-pyrimidine-2,4-dione]	–	–	–	–	–	–	–	–	4.4	–	–	–	–	–
Nc1ccn([C@@H]2O[C@H](CO)[C@@H](O)C2(F)F)c(=O)n1 [gemcitabine]	–	–	–	–	–	–	–	–	5.6	6.7	3.7	3.3	6.8	9
